Laboratory results published in patent EP4722219A1 (Gan & Lee Pharmaceuticals Co., Ltd., priority 2023, dated 2024).

Tests used:
AR protein = biological target: T1, AR protein (Homo sapiens, UniProt P10275, T878A); experiment: AR protein degradation in LNCaP cells (Western blot); format: cell-based; details: 8 hours; for percent AR protein degradation at a fixed concentration at 0.01 µM / Degradation of AR protein in LNCaP cells, 10 nM (%): 10 nM; for percent AR protein degradation at a fixed concentration at 0.1 µM / Degradation of AR protein in LNCaP cells, 100 nM (%): 100 nM
T1 construct: host or cells: LNCaP FGC
T1 sequence (P10275 1-920 T878A): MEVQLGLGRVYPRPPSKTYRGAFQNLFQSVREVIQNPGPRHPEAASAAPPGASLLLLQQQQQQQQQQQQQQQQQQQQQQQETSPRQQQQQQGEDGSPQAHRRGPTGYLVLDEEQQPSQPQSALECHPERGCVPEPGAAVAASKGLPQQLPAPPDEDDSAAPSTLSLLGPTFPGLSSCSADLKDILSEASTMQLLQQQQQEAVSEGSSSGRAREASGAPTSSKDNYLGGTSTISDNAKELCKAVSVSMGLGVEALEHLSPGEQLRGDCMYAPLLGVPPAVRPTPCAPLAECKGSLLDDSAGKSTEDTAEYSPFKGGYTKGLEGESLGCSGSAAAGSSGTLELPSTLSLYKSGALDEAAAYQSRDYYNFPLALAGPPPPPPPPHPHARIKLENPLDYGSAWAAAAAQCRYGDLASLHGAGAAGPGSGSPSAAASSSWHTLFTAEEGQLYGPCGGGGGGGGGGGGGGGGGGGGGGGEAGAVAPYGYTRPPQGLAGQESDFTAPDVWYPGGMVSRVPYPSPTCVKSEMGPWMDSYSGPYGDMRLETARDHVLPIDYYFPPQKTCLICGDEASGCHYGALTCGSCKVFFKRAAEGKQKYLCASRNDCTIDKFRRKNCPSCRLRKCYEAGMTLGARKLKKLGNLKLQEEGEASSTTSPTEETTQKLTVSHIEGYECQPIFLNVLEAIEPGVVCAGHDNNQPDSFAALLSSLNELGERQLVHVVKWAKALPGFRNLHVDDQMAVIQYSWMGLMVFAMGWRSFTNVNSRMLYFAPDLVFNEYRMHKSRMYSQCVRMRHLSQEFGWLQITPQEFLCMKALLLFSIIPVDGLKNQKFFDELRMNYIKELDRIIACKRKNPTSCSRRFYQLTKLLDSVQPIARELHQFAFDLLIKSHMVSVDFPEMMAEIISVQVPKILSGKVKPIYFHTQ
Method in brief: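 AR degradation rate derived from Western blot band densitometry, referenced to GAPDH, using total lysates of LNCaP cells treated 8 h with compound versus solvent control. Detection used infrared dual-color imaging after SDS-PAGE and PVDF transfer.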

LNCaP cells = experiment: Inhibition of LNCaP cell proliferation (WST-8); format: cell-based; details: Homo sapiens, LNCaP FGC cells, 96 hours
Method in brief: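 WST-8 absorbance at 450 nm measured proliferation after 96 h of compound exposure at 37 °C, 5% CO2. Dosing used nine 5-fold dilutions from a 10 µM top final concentration, applied to cells cultured overnight beforehand.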

Compound	percent AR protein degradation at a fixed concentration at 0.01 µM (AR protein) [%]	percent AR protein degradation at a fixed concentration at 0.1 µM (AR protein) [%]	IC50 (LNCaP cells) [µM]	Degradation of AR protein in LNCaP cells, 10 nM (%) (AR protein)	Degradation of AR protein in LNCaP cells, 100 nM (%) (AR protein)
C[C@H]1CC2(CCN(c3ccc(N4CCC(CN5CCC6(CC5)COc5ccc7c(c56)n(C)c(=O)n7C5CCC(=O)NC5=O)CC4)cc3)CC2)CN1c1ccc(C#N)c(Cl)c1 (stereo partly drawn) [A-P-26, 2-chloro-4-((3 S)-8-(4-(4-((3-((2,6-dioxopiperidin-3-yl))-1-methyl-2-oxo-2,3-dihydro-1H,7H-spiro[benzofuro[4,5-d]imidazole-8,4'-piperidin]-1'-yl)methyl)piperidin-1-yl)phenyl)-3-methyl-2,8-diazaspiro[4.5]decan-2-yl)benzonitrile]	48	65	4.91	–	–
Cn1c(=O)n(C2CCC(=O)NC2=O)c2ccc3c(c21)OCC31CCN(C2CCN(c3ccc(C(=O)N[C@H]4CC[C@H](Oc5ccc(C#N)c(Cl)c5)CC4)nn3)CC2)CC1 (stereo partly drawn) [A-P-23]	37	14	22.4	–	–
C[C@H]1CC2(CCN(c3ccc(C(=O)N4CCC(CN5CCC6(CCc7cc(C(=O)N[C@H]8CCC(=O)NC8=O)c(F)cc7O6)CC5)CC4)cc3)CC2)CN1c1ccc(C#N)c(Cl)c1 [A-P-35, 1'-((1-(4-((S)-2-(3-chloro-4-cyanophenyl)-3-methyl-2,8-diazaspiro[4.5]decan-8-yl)benzoyl)piperidin-4-yl)methyl)-N-((S)-2,6-dioxopiperidin-3-yl)-7-fluorospiro[chroman-2,4'-piperidin]-6-carboxamide]	61	70	0.28	–	–
COc1cc(O[C@H]2C(C)(C)[C@H](NC(=O)c3ccc(N4CCC(C)(CN5CCC6(CCc7cc(C(=O)N[C@H]8CCC(=O)NC8=O)c(F)cc7O6)CC5)CC4)nn3)C2(C)C)ccc1C#N [A-P-48, 1'-((1-(6-(((1R,3R)-3-(4-cyano-3-methoxyphenoxy)-2,2,4,4-tetramethylcyclobutyl)carbamoyl)pyridazin-3-yl)-4-methylpiperidin-4-yl)methyl)-N-((S)-2,6-dioxopiperidin-3-yl)-7-fluorospiro[chroman-2,4'-piperidin]-6-carboxamide]	–	–	0.86	45	63
COc1cc(O[C@H]2C(C)(C)[C@H](NC(=O)c3ccc(N4CCC(F)(CN5CC6(CCC7(CC6)COc6c7ccc7c6CN(C6CCC(=O)NC6=O)C7=O)C5)CC4)cc3)C2(C)C)ccc1C#N (relative stereo) [A-P-5]	–	–	1	43	62
Cn1c(=O)n(C2CCC(=O)NC2=O)c2ccc3c(c21)OCC31CCN(CC2CCN(c3ccc(C(=O)N[C@H]4CC[C@H](Oc5ccc(C#N)c(Cl)c5)CC4)nn3)CC2)CC1 (stereo partly drawn) [A-P-24]	49	29	22.8	–	–
COc1cc(O[C@H]2C(C)(C)[C@H](NC(=O)c3ccc(N4CCC5(CC4)CC(N4CCC6(CC4)COc4cc7c(cc46)n(C)c(=O)n7C4CCC(=O)NC4=O)C5)nn3)C2(C)C)ccc1C#N (relative stereo) [A-P-14, N-((1r,3r)-3-(4-cyano-3-methoxyphenoxy)-2,2,4,4-tetramethylcyclobutyl)-6-(2-(3-(2,6-dioxopiperidin-3-yl)-1-methyl-2-oxo-2,3-dihydro-1H,6H-spiro[benzofuro[5,6-d]imidazole-7,4'-piperidin]-1'-yl)-7-azaspiro[3.5]nonan-7-yl)pyridazine-3-carboxamide]	–	–	1.1	36	32
Cn1c(=O)n(C2CCC(=O)NC2=O)c2cc3c(cc21)C1(CCN(CC2CCN(c4ccc(C(=O)N[C@H]5CC[C@H](Oc6ccc(C#N)c(Cl)c6)CC5)nn4)CC2)CC1)CO3 (stereo partly drawn) [A-P-10]	47	5	137	–	–
